Laboratory results from patent US6589993B2, “Treating vancomycin-intermediates and multiresistant staphylococci infection with thiamphenicol or a salt thereof” (Zambon Group S.p.A., priority 2000, dated 2003).
In brackets after ≈: the same amount, converted by molar mass. Read-outs that look alike come from different tables or passages of the source.

Key:
[1] = tested on: S. aureus Met-R multiresistant strains; assay: MIC determination (NCCLS broth microdilution), methicillin-resistant multiresistant S. aureus strains; format: cell-based, Staphylococcus aureus; conditions: for % susceptible at breakpoint: NCCLS (1999) breakpoints; for MIC / MIC50 / MIC90: Staphylococcus aureus; for MIC: antibiotype Oxa, Ery, read-out: MIC; for MIC50: read-out: MIC 50%; for MIC90: read-out: MIC 90%
Experimental: (§1) The MICs of thiamphenicol and of other antibiotics was obtained by using the method proposed by NCCLS (National Committee for Clinical Laboratory Standards, 1999).
(§2) Various antibiotic concentrations were added to bacteria in exponental growth (final inoculum 5×10^5 […]); dilution in Mb (cation-supplemented Mueller-Hinton broth) and distribution on a microplate by using an automatic diluting machine Biomek 1000 (Beckman, USA). MHb charged with 2% NaCl was used to test the methicillin activity.
(§3) The antibiotic concentration which hinders a visible growth after 18-24 hours of incubation at 37° C., was registered as MIC.
(§4) S. aureus ATCC 29213 was used as quality control strain.

[2] = tested on: S. aureus vancomycin-intermediates (VISA) Met-R strains; assay: MIC determination (NCCLS broth microdilution), VISA Met-R strains; format: cell-based, Staphylococcus aureus; conditions: for MIC: antibiotype Oxa, Cip, Clin, Ery
Experimental: as §1, §2, §3, §4

[3] = Strain 30, Cip, Clin, Gm, SXT, Dox
[4] = Strain 32, Cip, Clin, Gm, SXT, Rif
[5] = Strain 44, Cip, Clin, Gm, Rif, Dox
[6] = Strain 45, Cip, Clin, Gm, Rif, Dox, Fos
[7] = Strain 50, Cip, Clin, Gm, Rif, Dox
[8] = Staphylococcus aureus, Strain 51 VISA, read-out: MIC

## CCC[C@@H]1C[C@@H](C(=O)N[C@@H]([C@H]2O[C@H](SC)[C@H](O)[C@@H](O)[C@H]2O)[C@H](C)Cl)N(C)C1 [Clindamycin, clindamycin]
[1]; S. aureus (50) Met-R
  % susceptible at breakpoint: 8%
  MIC50: > 64 µg/mL
  MIC90: > 64 µg/mL
[1]; Strain 1, Cip, Clin, Gm
  MIC: > 64 µg/mL
[1]; Strain 2, Clin, Fos
  MIC: > 64 µg/mL
[1]; Strain 3, Cip, Clin, Gm
  MIC: > 64 µg/mL
[1]; Strain 4, Cip, Gm
  MIC: ≤ 0.06 µg/mL
[1]; Strain 5, Cip, Clin
  MIC: > 64 µg/mL
[1]; Strain 6, Clin, Gm
  MIC: > 64 µg/mL
[1]; Strain 7, Cip, Gm
  MIC: ≤ 0.06 µg/mL
[1]; Strain 8, Cip, Clin
  MIC: > 64 µg/mL
[1]; Strain 9, Cip, Clin, Gm
  MIC: > 64 µg/mL
[1]; Strain 10, Cip, Clin, Gm
  MIC: 64 µg/mL (≈ 151 µM)
[1]; Strain 11, Clin, Rif
  MIC: > 64 µg/mL
[1]; Strain 12, Cip, Clin
  MIC: > 64 µg/mL
[1]; Strain 13, Cip, Clin
  MIC: > 64 µg/mL
[1]; Strain 14, Clin, Cip
  MIC: > 64 µg/mL
[1]; Strain 15, Cip, Clin, Gm
  MIC: > 64 µg/mL
[1]; Strain 16, Cip, Clin
  MIC: > 64 µg/mL
[1]; Strain 17, Cip, Clin
  MIC: > 64 µg/mL
[1]; Strain 18, Cip, Clin, Gm
  MIC: > 64 µg/mL
[1]; Strain 19, Cip, Clin, Gm
  MIC: > 64 µg/mL
[1]; Strain 20, Cip, Clin, Gm
  MIC: 64 µg/mL (≈ 151 µM)
[1]; Strain 21, Cip, Clin, Gm
  MIC: > 64 µg/mL
[1]; Strain 22, Cip, Clin
  MIC: > 64 µg/mL
[1]; Strain 23, Cip, Clin, Gm
  MIC: > 64 µg/mL
[1]; Strain 24, Cip, Clin, Gm
  MIC: > 64 µg/mL
[1]; Strain 25, Cip, Clin, Gm
  MIC: 64 µg/mL (≈ 151 µM)
[1]; Strain 26, Cip, Clin, Fos, Gm
  MIC: 64 µg/mL (≈ 151 µM)
[1]; Strain 27, Cip, Clin, Fos, Gm
  MIC: 64 µg/mL (≈ 151 µM)
[1]; Strain 28, Cip, Clin, Gm
  MIC: > 64 µg/mL
[1]; Strain 29, Clin, Fos
  MIC: > 64 µg/mL
[1]; [3]
  MIC: 16 µg/mL (≈ 37.6 µM)
[1]; Strain 31, Cip, Clin, Fox, Gm
  MIC: > 64 µg/mL
[1]; [4]
  MIC: 64 µg/mL (≈ 151 µM)
[1]; Strain 33, Cip, Clin, Gm
  MIC: > 64 µg/mL
[1]; Strain 34, Cip, Clin, Gm
  MIC: > 64 µg/mL
[1]; Strain 35, Cip, Clin, Gm
  MIC: 64 µg/mL (≈ 151 µM)
[1]; Strain 36, Cip, Clin, Fos
  MIC: 64 µg/mL (≈ 151 µM)
[1]; Strain 37, Cip, Clin, Fos, Gm
  MIC: 64 µg/mL (≈ 151 µM)
[1]; Strain 38, Cip, Gm
  MIC: ≤ 0.06 µg/mL
[1]; Strain 39, Cip, Clin, Fos, Gm
  MIC: 64 µg/mL (≈ 151 µM)
[1]; Strain 40, Cip, Clin, Gm
  MIC: > 64 µg/mL
[1]; Strain 41, Cip, Clin
  MIC: 64 µg/mL (≈ 151 µM)
[1]; Strain 42, Cip, Clin, Gm
  MIC: 64 µg/mL (≈ 151 µM)
[1]; Strain 43, Cip, Clin, Gm
  MIC: 64 µg/mL (≈ 151 µM)
[1]; [5]
  MIC: 64 µg/mL (≈ 151 µM)
[1]; [6]
  MIC: 64 µg/mL (≈ 151 µM)
[1]; Strain 46, Clin, Fos
  MIC: 64 µg/mL (≈ 151 µM)
[1]; Strain 47, Cip, Clin, Gm
  MIC: 64 µg/mL (≈ 151 µM)
[1]; Strain 48, Cip, Clin
  MIC: 64 µg/mL (≈ 151 µM)
[1]; Strain 49, Cip, Gm
  MIC: ≤ 0.06 µg/mL
[1]; [7]
  MIC: > 64 µg/mL
[2]; [8]
  MIC: > 64 µg/mL
[2]; Strain 52 VISA
  MIC: >64 µg/mL
[2]; VISA (2) Met-R
  MIC Range: >64 µg/mL

## O=C(N[C@H](CO)[C@H](O)c1ccc([N+](=O)[O-])cc1)C(Cl)Cl [Cloramphenicol, cloramphenicol]
[1]; S. aureus (50) Met-R
  MIC Range: 4 to 64 µg/mL
  % susceptible at breakpoint: 66%
  MIC50: 8 µg/mL (≈ 24.8 µM)
  MIC90: 64 µg/mL (≈ 198 µM)
[1]; Strain 1, Cip, Clin, Gm
  MIC: 4 µg/mL (≈ 12.4 µM)
[1]; Strain 2, Clin, Fos
  MIC: 64 µg/mL (≈ 198 µM)
[1]; Strain 3, Cip, Clin, Gm
  MIC: 4 µg/mL (≈ 12.4 µM)
[1]; Strain 4, Cip, Gm
  MIC: 4 µg/mL (≈ 12.4 µM)
[1]; Strain 5, Cip, Clin
  MIC: 64 µg/mL (≈ 198 µM)
[1]; Strain 6, Clin, Gm
  MIC: 64 µg/mL (≈ 198 µM)
[1]; Strain 7, Cip, Gm
  MIC: 8 µg/mL (≈ 24.8 µM)
[1]; Strain 8, Cip, Clin
  MIC: 64 µg/mL (≈ 198 µM)
[1]; Strain 9, Cip, Clin, Gm
  MIC: 8 µg/mL (≈ 24.8 µM)
[1]; Strain 10, Cip, Clin, Gm
  MIC: 4 µg/mL (≈ 12.4 µM)
[1]; Strain 11, Clin, Rif
  MIC: 64 µg/mL (≈ 198 µM)
[1]; Strain 12, Cip, Clin
  MIC: 64 µg/mL (≈ 198 µM)
[1]; Strain 13, Cip, Clin
  MIC: 8 µg/mL (≈ 24.8 µM)
[1]; Strain 14, Clin, Cip
  MIC: 8 µg/mL (≈ 24.8 µM)
[1]; Strain 15, Cip, Clin, Gm
  MIC: 8 µg/mL (≈ 24.8 µM)
[1]; Strain 16, Cip, Clin
  MIC: 8 µg/mL (≈ 24.8 µM)
[1]; Strain 17, Cip, Clin
  MIC: 8 µg/mL (≈ 24.8 µM)
[1]; Strain 18, Cip, Clin, Gm
  MIC: 64 µg/mL (≈ 198 µM)
[1]; Strain 19, Cip, Clin, Gm
  MIC: 8 µg/mL (≈ 24.8 µM)
[1]; Strain 20, Cip, Clin, Gm
  MIC: 64 µg/mL (≈ 198 µM)
[1]; Strain 21, Cip, Clin, Gm
  MIC: 64 µg/mL (≈ 198 µM)
[1]; Strain 22, Cip, Clin
  MIC: 8 µg/mL (≈ 24.8 µM)
[1]; Strain 23, Cip, Clin, Gm
  MIC: 64 µg/mL (≈ 198 µM)
[1]; Strain 24, Cip, Clin, Gm
  MIC: 64 µg/mL (≈ 198 µM)
[1]; Strain 25, Cip, Clin, Gm
  MIC: 8 µg/mL (≈ 24.8 µM)
[1]; Strain 26, Cip, Clin, Fos, Gm
  MIC: 8 µg/mL (≈ 24.8 µM)
[1]; Strain 27, Cip, Clin, Fos, Gm
  MIC: 8 µg/mL (≈ 24.8 µM)
[1]; Strain 28, Cip, Clin, Gm
  MIC: 64 µg/mL (≈ 198 µM)
[1]; Strain 29, Clin, Fos
  MIC: 8 µg/mL (≈ 24.8 µM)
[1]; [3]
  MIC: 8 µg/mL (≈ 24.8 µM)
[1]; Strain 31, Cip, Clin, Fox, Gm
  MIC: 8 µg/mL (≈ 24.8 µM)
[1]; [4]
  MIC: 64 µg/mL (≈ 198 µM)
[1]; Strain 33, Cip, Clin, Gm
  MIC: 64 µg/mL (≈ 198 µM)
[1]; Strain 34, Cip, Clin, Gm
  MIC: 64 µg/mL (≈ 198 µM)
[1]; Strain 35, Cip, Clin, Gm
  MIC: 8 µg/mL (≈ 24.8 µM)
[1]; Strain 36, Cip, Clin, Fos
  MIC: 8 µg/mL (≈ 24.8 µM)
[1]; Strain 37, Cip, Clin, Fos, Gm
  MIC: 8 µg/mL (≈ 24.8 µM)
[1]; Strain 38, Cip, Gm
  MIC: 8 µg/mL (≈ 24.8 µM)
[1]; Strain 39, Cip, Clin, Fos, Gm
  MIC: 8 µg/mL (≈ 24.8 µM)
[1]; Strain 40, Cip, Clin, Gm
  MIC: 8 µg/mL (≈ 24.8 µM)
[1]; Strain 41, Cip, Clin
  MIC: 8 µg/mL (≈ 24.8 µM)
[1]; Strain 42, Cip, Clin, Gm
  MIC: 8 µg/mL (≈ 24.8 µM)
[1]; Strain 43, Cip, Clin, Gm
  MIC: 8 µg/mL (≈ 24.8 µM)
[1]; [5]
  MIC: 8 µg/mL (≈ 24.8 µM)
[1]; [6]
  MIC: 8 µg/mL (≈ 24.8 µM)
[1]; Strain 46, Clin, Fos
  MIC: 8 µg/mL (≈ 24.8 µM)
[1]; Strain 47, Cip, Clin, Gm
  MIC: 8 µg/mL (≈ 24.8 µM)
[1]; Strain 48, Cip, Clin
  MIC: 64 µg/mL (≈ 198 µM)
[1]; Strain 49, Cip, Gm
  MIC: 8 µg/mL (≈ 24.8 µM)
[1]; [7]
  MIC: 64 µg/mL (≈ 198 µM)
[2]; [8]
  MIC: 8 µg/mL (≈ 24.8 µM)
[2]; Strain 52 VISA
  MIC: 8 µg/mL (≈ 24.8 µM)
[2]; VISA (2) Met-R
  MIC Range: 8 µg/mL (≈ 24.8 µM)
[2]; VISA (2) Met-R, NCCLS (1999) breakpoints
  % susceptible at breakpoint: 100%
